Data as given in PubChem BioAssay (NCI).
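Five concentrations, 48 hours, 96-well plates. TGI is the concentration that stops growth completely.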

Key:
Experiment in all cases: DTP human tumour cell line panel, 48 h
U251 CNS = tested on: U251 CNS
UO-31 renal = tested on: UO-31 renal
SF-268 CNS = tested on: SF-268 CNS
MDA-MB-231 breast = tested on: MDA-MB-231 breast
CCRF-CEM leukemia = tested on: CCRF-CEM leukemia
PC-3 prostate = tested on: PC-3 prostate
HCC-2998 colon = tested on: HCC-2998 colon
HCT-15 colon = tested on: HCT-15 colon
HL-60(TB) leukemia = tested on: HL-60(TB) leukemia
RXF 393 renal = tested on: RXF 393 renal
OVCAR-8 ovarian = tested on: OVCAR-8 ovarian
SNB-75 CNS = tested on: SNB-75 CNS
OVCAR-4 ovarian = tested on: OVCAR-4 ovarian
OVCAR-5 ovarian = tested on: OVCAR-5 ovarian
NCI-H522 lung = tested on: NCI-H522 lung
MDA-MB-435 = tested on: MDA-MB-435
T-47D breast = tested on: T-47D breast
KM12 colon = tested on: KM12 colon
SK-MEL-5 melanoma = tested on: SK-MEL-5 melanoma
NCI/ADR-RES ovarian = tested on: NCI/ADR-RES ovarian

Structure (SMILES): COc1cc(/C=C/C=C2\CCC/C(=C\C=C\c3ccc(O)c(OC)c3)C2=O)ccc1O
- TGI (U251 CNS): > 100 µM
- TGI (UO-31 renal): 39.5 µM
- TGI (SF-268 CNS): 40.4 µM
- TGI (MDA-MB-231 breast): > 100 µM
- TGI (CCRF-CEM leukemia): 8.99 µM
- TGI (PC-3 prostate): 38.2 µM
- TGI (HCC-2998 colon): > 100 µM
- TGI (HCT-15 colon): 43.7 µM
- TGI (HL-60(TB) leukemia): > 100 µM
- TGI (RXF 393 renal): 41.7 µM
- TGI (OVCAR-8 ovarian): 72.3 µM
- TGI (SNB-75 CNS): > 100 µM
- TGI (OVCAR-4 ovarian): > 100 µM
- TGI (OVCAR-5 ovarian): 79.5 µM
- TGI (NCI-H522 lung): 3.39 µM
- TGI (MDA-MB-435): > 100 µM
- TGI (T-47D breast): 36.7 µM
- TGI (KM12 colon): 97.4 µM
- TGI (SK-MEL-5 melanoma): 27.2 µM
- TGI (NCI/ADR-RES ovarian): 48.8 µM

Structure (SMILES): CC(C)(Cl)C(Br)CCC(CBr)=C(Cl)CCl (mixture of isomers)
- TGI (U251 CNS): 3.16 µM
- TGI (UO-31 renal): 3.96 µM
- TGI (SF-268 CNS): 5.67 µM
- TGI (MDA-MB-231 breast): 3.5 µM
- TGI (CCRF-CEM leukemia): 0.568 µM
- TGI (PC-3 prostate): 5.56 µM
- TGI (HCC-2998 colon): > 8.02 µM
- TGI (HCT-15 colon): 5.15 µM
- TGI (HL-60(TB) leukemia): 2.95 µM
- TGI (RXF 393 renal): 4.97 µM
- TGI (OVCAR-8 ovarian): 3.14 µM
- TGI (SNB-75 CNS): 7.93 µM
- TGI (OVCAR-4 ovarian): > 5.87 µM
- TGI (OVCAR-5 ovarian): > 8.21 µM
- TGI (NCI-H522 lung): 3.22 µM
- TGI (MDA-MB-435): 3.46 µM
- TGI (T-47D breast): 5.33 µM
- TGI (KM12 colon): 4.1 µM
- TGI (SK-MEL-5 melanoma): 3.87 µM
- TGI (NCI/ADR-RES ovarian): 5.21 µM

Structure (SMILES): CN(C)Cc1cc(C(=O)/C=C/c2ccc(Br)cc2)cc(CN(C)C)c1O
- TGI (U251 CNS): 33.5 µM
- TGI (UO-31 renal): 9.04 µM
- TGI (SF-268 CNS): 50.3 µM
- TGI (MDA-MB-231 breast): 12.1 µM
- TGI (CCRF-CEM leukemia): 26.7 µM
- TGI (PC-3 prostate): 10.2 µM
- TGI (HCC-2998 colon): 27.8 µM
- TGI (HCT-15 colon): 25.3 µM
- TGI (HL-60(TB) leukemia): 20.5 µM
- TGI (RXF 393 renal): 17.1 µM
- TGI (OVCAR-8 ovarian): 20.8 µM
- TGI (SNB-75 CNS): 35.3 µM
- TGI (OVCAR-4 ovarian): 28.8 µM
- TGI (OVCAR-5 ovarian): 34 µM
- TGI (NCI-H522 lung): 12.6 µM
- TGI (MDA-MB-435): 37.9 µM
- TGI (T-47D breast): 37.9 µM
- TGI (KM12 colon): 5.88 µM
- TGI (SK-MEL-5 melanoma): 28.5 µM
- TGI (NCI/ADR-RES ovarian): > 100 µM

Structure (SMILES): CC(=O)Nc1ccc(-c2nc3ccccc3s2)cc1Cl
- TGI (U251 CNS): > 100 µM
- TGI (UO-31 renal): > 100 µM
- TGI (SF-268 CNS): > 100 µM
- TGI (MDA-MB-231 breast): > 100 µM
- TGI (CCRF-CEM leukemia): > 100 µM
- TGI (PC-3 prostate): > 100 µM
- TGI (HCC-2998 colon): > 100 µM
- TGI (HCT-15 colon): > 100 µM
- TGI (HL-60(TB) leukemia): > 100 µM
- TGI (RXF 393 renal): 90.3 µM
- TGI (OVCAR-8 ovarian): > 100 µM
- TGI (SNB-75 CNS): > 100 µM
- TGI (OVCAR-4 ovarian): > 100 µM
- TGI (OVCAR-5 ovarian): > 100 µM
- TGI (NCI-H522 lung): > 100 µM
- TGI (MDA-MB-435): > 100 µM
- TGI (T-47D breast): > 100 µM
- TGI (KM12 colon): > 100 µM
- TGI (SK-MEL-5 melanoma): > 100 µM
- TGI (NCI/ADR-RES ovarian): > 100 µM

Structure (SMILES): Cc1ccc(-c2cn3c(nc4ccccc43)c(-c3ccccc3)n2)cc1
- TGI (U251 CNS): > 66.6 µM
- TGI (UO-31 renal): > 73.9 µM
- TGI (SF-268 CNS): > 96.2 µM
- TGI (MDA-MB-231 breast): > 100 µM
- TGI (CCRF-CEM leukemia): > 100 µM
- TGI (PC-3 prostate): > 100 µM
- TGI (HCC-2998 colon): > 100 µM
- TGI (HCT-15 colon): > 100 µM
- TGI (HL-60(TB) leukemia): > 100 µM
- TGI (RXF 393 renal): > 61.3 µM
- TGI (OVCAR-8 ovarian): > 100 µM
- TGI (SNB-75 CNS): > 47.7 µM
- TGI (OVCAR-4 ovarian): > 100 µM
- TGI (OVCAR-5 ovarian): > 100 µM
- TGI (NCI-H522 lung): > 100 µM
- TGI (MDA-MB-435): > 100 µM
- TGI (T-47D breast): > 91.7 µM
- TGI (KM12 colon): > 100 µM
- TGI (SK-MEL-5 melanoma): > 100 µM
- TGI (NCI/ADR-RES ovarian): > 100 µM

Structure (SMILES): Cc1cc(S(=O)(=O)Nc2nc3ccccc3[nH]2)c(S)cc1Cl
- TGI (U251 CNS): 78.3 µM
- TGI (UO-31 renal): > 100 µM
- TGI (SF-268 CNS): > 100 µM
- TGI (MDA-MB-231 breast): > 100 µM
- TGI (CCRF-CEM leukemia): 80.6 µM
- TGI (PC-3 prostate): > 100 µM
- TGI (HCC-2998 colon): > 100 µM
- TGI (HCT-15 colon): > 100 µM
- TGI (HL-60(TB) leukemia): > 100 µM
- TGI (RXF 393 renal): > 100 µM
- TGI (OVCAR-8 ovarian): > 100 µM
- TGI (SNB-75 CNS): > 100 µM
- TGI (OVCAR-4 ovarian): > 100 µM
- TGI (OVCAR-5 ovarian): > 100 µM
- TGI (NCI-H522 lung): > 100 µM
- TGI (MDA-MB-435): > 100 µM
- TGI (T-47D breast): > 100 µM
- TGI (KM12 colon): > 100 µM
- TGI (SK-MEL-5 melanoma): > 100 µM
- TGI (NCI/ADR-RES ovarian): > 100 µM

Structure (SMILES): CCOC(=O)c1c(C)noc1/N=N/N(CCO)CCO
- TGI (U251 CNS): > 100 µM
- TGI (UO-31 renal): 77.2 µM
- TGI (SF-268 CNS): > 100 µM
- TGI (MDA-MB-231 breast): > 100 µM
- TGI (CCRF-CEM leukemia): 59.3 µM
- TGI (PC-3 prostate): > 100 µM
- TGI (HCC-2998 colon): 78.3 µM
- TGI (HCT-15 colon): > 100 µM
- TGI (HL-60(TB) leukemia): > 100 µM
- TGI (RXF 393 renal): 50.3 µM
- TGI (OVCAR-8 ovarian): > 100 µM
- TGI (SNB-75 CNS): 46.1 µM
- TGI (OVCAR-4 ovarian): > 100 µM
- TGI (OVCAR-5 ovarian): > 100 µM
- TGI (NCI-H522 lung): 70.7 µM
- TGI (MDA-MB-435): > 100 µM
- TGI (T-47D breast): 39.7 µM
- TGI (KM12 colon): > 100 µM
- TGI (SK-MEL-5 melanoma): 32.5 µM
- TGI (NCI/ADR-RES ovarian): > 100 µM

Structure (SMILES): COc1ccc(C2C3=C(COC3=O)OC(C)(C)Oc3cc4c(cc32)OCO4)cc1 (stereo not given)
- TGI (U251 CNS): > 100 µM
- TGI (UO-31 renal): 98.7 µM
- TGI (SF-268 CNS): > 100 µM
- TGI (MDA-MB-231 breast): 97.9 µM
- TGI (CCRF-CEM leukemia): > 100 µM
- TGI (PC-3 prostate): 73.4 µM
- TGI (HCC-2998 colon): 96.9 µM
- TGI (HCT-15 colon): > 100 µM
- TGI (HL-60(TB) leukemia): > 61.3 µM
- TGI (RXF 393 renal): 79 µM
- TGI (OVCAR-8 ovarian): > 100 µM
- TGI (SNB-75 CNS): 23 µM
- TGI (OVCAR-4 ovarian): > 100 µM
- TGI (OVCAR-5 ovarian): > 100 µM
- TGI (NCI-H522 lung): > 69.5 µM
- TGI (MDA-MB-435): 14.9 µM
- TGI (T-47D breast): > 87.4 µM
- TGI (KM12 colon): > 81 µM
- TGI (SK-MEL-5 melanoma): 99.8 µM
- TGI (NCI/ADR-RES ovarian): > 81.6 µM
